How the values were obtained:
rats = experiment: chronic toxicity tests in rats; type: in vivo, rat; settings: 40 mg/kg/day
[1] = test system: writhing induced by intraperitoneal acetic acid in mice; experiment: acetic acid writhing test in mice (analgesic activity); type: in vivo, mouse; design: key to Analgesic activity (writhing test): rated, according to its intensity, with from 1 + to 4 +'s, with from 1 + to 4 +'s; ++++: rated, according to its intensity, with from 1 + to 4 +'s; settings: for Analgesic activity (writhing test): oral, mice, 0.5 hour prior to i.p. acetic acid, 15 minutes recording, rated + to ++++
Experimental: The analgesic activity was determined according to the conventional testing methods for said activity: the writhing test. Mice are given a single intraperitoneal injection of 0.2 ml 6°/129 acetic acid.
The test compound is administered orally 0.5 hour prior to the acetic acid injection. The number of characteristic writhing movements inducted by pain is recorded during the 15 minutes which follow the acetic acid injection.
The analgesic action of the various derivatives is rated, according to its intensity, with from 1 + to 4 +'s in the following table.

fasting rats = experiment: ulcerogenic activity in fasting rats; type: in vivo, rat
[2] = test system: cotton-induced granuloma in rat; experiment: cotton-induced granuloma in rat; type: in vivo; settings: male rats, oral during 7 days
Experimental: The test is conducted according to the technique of […]. Am. Chem. Soc., 80, 3161, 1958) The male rats are distributed in randomized groups, slightly anesthetized and depilated in the dorsal area. An incision of about 1 cm is effected along the spine, and 2 pellets of carded cotton weighing each 20 mg are placed under the skin on both sides of the neck. The treatments are administered orally during 7 days, as suspensions in BT medium. The reference group is administered BT medium alone, under the same experimental conditions. 24 hours after the last ingestion, the pellets are excised and weighed.

[3] = test system: hyperthermia induced in rats by subcutaneous injection of barm; experiment: antipyretic activity, barm (yeast)-induced hyperthermia in rats; type: in vivo, rat; settings: po, intragastric, 17 hours after yeast injection, lowest active dosage, read-out: active from a dosage of (antipyretic activity)
Experimental: Hyperthermia is induced in rats by subcutaneous injection of barm, at a dosage of 4 g/kg.
The treatments are administered by the intragastric route, 17 hours after yeast injection.
The change in rectal temperature of the rats is compared, as a function of time, in the absolute reference animals, the "barm" reference animals and the treated animals.

[4] = test system: ultra-violet induced erythema in guinea-pigs; experiment: ultra-violet induced erythema in guinea-pigs; type: in vivo, guinea-pig; settings: intragastric
Experimental: Erythema is induced in depilated guinea-pigs placed at a distance of 25 cm from a 300 watt mercury vapor lamp.
The back of the guinea-pigs is covered with a coat of flexible rubber in which 3 circular perforations 8 mm in diameter are effected. Blind evaluation of the erythema is carried out, 2 hrs and 5 hrs after irradiation.
The treatment is administered by the intragastric route, under a volume of 5 ml/kg.

[5] = test system: Freund-adjuvant induced arthritis in rats; experiment: Freund-adjuvant induced arthritis in rats; type: in vivo; settings: Rattus norvegicus, limb volume, X-ray examination, weight curve, lowest active dosage, read-out: inhibiting activity on the development of adjuvant-induced polyarthritis, apparent from a dosage of
Experimental: Injection of Mycobacterium butyricum is carried out at the level of the hind limb of rats, and produces as early as the 10th day an arthritis which develops rapidly.
The inhibiting activity of the compound of Example 1 on the development of adjuvant-induced polyarthritis in rats is apparent from a dosage of 5 mg/kg.

[6] = test system: carrageenin-induced edema of the rear limb of rats; experiment: carrageenin-induced edema of the rear limb of rats (anti-inflammatory activity); type: in vivo, rat; design: Anti-inflammatory activity (carrageenin-induced edema): key to the marks not given beside the values; settings: for Anti-inflammatory activity (carrageenin-induced edema): oral, rats, after 1.5 hour, rated + to ++++; for ED30 / ED40: carrageenin-induced edema in rat; for ED30: read-out: AD30; for ED40: read-out: AD40
Excerpt: The anti-inflammatory action of the various compounds is rated, according to its intensity, with 1 + to 4 +'s in the following Table.
1. Carrageenin-induced edema in rat

male mice = experiment: acute oral toxicity in male mice; type: in vivo
Experimental: (§1) Acute toxicity was determined orally in male mice.

[7] = acute oral toxicity in male mice; type: in vivo; settings: mouse, in vivo, po, male mice; read-out: LD50 per os
Experimental: as §1

| Structure (SMILES) | Analgesic activity (writhing test) [1] | Anti-inflammatory activity (carrageenin-induced edema) [6] | ED30 ([6]; po, 1.5 h) [mg/kg] | ED40 ([6]; po, 1.5 h) [mg/kg] | LD50 [7] [mg/kg] | further results |
| --- | --- | --- | --- | --- | --- | --- |
| COc1ccc(-c2nc3n(c2-c2ccc(OC)cc2)CCS3)cc1 [Example 1, 2,3-dihydro-5,6-(bis-paramethoxyphenyl)-imidazo[2,1-b]-thiazole] | ++++ | ++++ | 5.22 | 7.78 |  | major side-effects (chronic toxicity) (rats): failed to provide evidence of any major side-effects; analgesic activity on visceral pain ([1]; acetic acid writhing test in mice, in words): highly marked analgesic activity on visceral pain; ulcerogenic activity (fasting rats): low ulcerogenic activity found in fasting rats is equivalent to that of the reference materials; activity relative to phenylbutazone (granuloma) [2]: twice as active as phenylbutazone; inhibition of the development of a granuloma [2]: inhibits the development of a granuloma; minimal effective dose [3]: 3.38 mg/kg; protective activity, dependence on dosage (erythema) [4]: proportional to the dosage administered; protective activity still maintained ... hours after administration ([4]; duration): ≥ 6 h; protective activity highly marked as early as the first ... hours ([4]; onset): ≤ 3 h; minimal effective dose [5]: 5 mg/kg; minimal effective dose ([6]; po, 1.5 h, rat, lowest active dosage, read-out: active from a dosage of (carrageenin-induced edema)): 3.38 mg/kg; LD50 per os (male mice; mouse, in vivo, po): > 4,200 mg/kg |
| CCCCC1C(=O)N(c2ccccc2)N(c2ccccc2)C1=O [Phenylbutazone, reference compound] |  |  | 16.1 | 27.4 |  |  |
| COc1ccc(-c2nc3n(c2-c2ccc(OC)cc2)C(C)C(C)S3)cc1 (centres unmarked) [Example 7, 2,3-dimethyl-2,3-dihydro-5,6-bis(p-methoxyphenyl)-imidazo[2,1-b]-thiazole] | ++++ | +++ |  |  |  |  |
| COc1ccc(-c2nc3n(c2-c2ccc(OC)cc2)C(C)CS3)cc1 (centres unmarked) [Example 4, 3-methyl-2,3-dihydro-5,6-(bis-paramethoxyphenyl)-imidazo[2,1-b]-thiazole] | +++ |  |  |  | > 2000 |  |
| COc1ccc(-c2nc3n(c2-c2ccc(OC)cc2)CCS3)cc1 [Example 22] |  |  |  |  |  | LD50 per os (male mice; oral, male mice): > 2,000 mg/kg |
| COc1ccc(-c2nc3n(c2-c2ccc(OC)cc2)CC(C)S3)cc1 (centres unmarked) [Example 3, 2-methyl-2,3-dihydro-5,6-(bis-paramethoxyphenyl)-imidazo[2,1-b]-thiazole] | +++ | +++ |  |  | > 2000 |  |

— patent publication US4110460A, “2,3-Dihydro-imidazo[2,1-b]-thiazole derivatives and applications thereof” (Metabio, priority 1976, dated 1978)
